Data as given in patent US11478451B1, “Macrocyclic chlorine substituted indole derivatives” (Bayer Aktiengesellschaft, priority 2017, dated 2022).
Values joined by “and” are separate entries in the source; they are usually repeats but may differ in a detail not shown here. Equal entries are not always repeated. Structures can show the parent of a compound that is named as a salt. Where two headings read alike, the source gives them in different places.

How the values were obtained:
[1] = test system: T47D cells; experiment: Antiproliferation assay (CellTiter-Glo, 72 h), T47D; type: cell-based; conditions: IC50, median, T47D (head printed T4713), read-out: Antiproli T4713 [M] median
Procedure: (§1) Assessment of the Anti-Proliferative Effect of Compounds in Different Cell Lines
(§2) The impact of compounds on the proliferation of different cell lines was assessed using the CellTiter-Glo® Luminescent Cell Viability reagent from Promega (G7573).
(§3) In parallel, cells were plated in a reference (day 0) plate for time zero determination.
(§4) Rim wells were excluded. The cells were incubated for 72 h hours in a humidified incubator at 37° C. The day 0 plate was measured by adding 30 μL/well of CTG solution (CellTiter-Glo® Luminescent Cell Viability reagent, Promega G7573) to time zero wells in the reference plate followed by a 10 minutes incubation and luminescence reading at 0.1 ms. using the PHERAstar FS microplate reader (BMG Labtech).
(§5) After 72 h incubation, the treated plates were measured in the same way as the day 0 plate mentioned above.

[2] = test system: AMO-1 cells; experiment: Antiproliferation assay (CellTiter-Glo, 72 h), AMO-1; type: cell-based; conditions: IC50, median; AMO-1, 72 h; read-out: Antiproli AMO-1 [M] median
Method in brief: (§6)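 Treated cells sat 72 h in a humidified 37 °C incubator, outer wells unused, before CellTiter-Glo reagent and a 10 min wait preceded luminescence reading; identical measurement of a parallel day 0 plate defined time zero.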

[3] = test system: MV-4-11 cells; experiment: Antiproliferation assay (CellTiter-Glo, 72 h), MV-4-11; type: cell-based; conditions: IC50, median; MV-4-11, 72 h; read-out: Antiproli MV-4-11 [M] median
Method in brief: as §6

[4] = test system: SUDHL10 cells; experiment: Induction of cytotoxicity (CellTiter-Glo, 5 h), SUDHL10; conditions: read-out: Cytotox SUDHL10 [M] (median); IC50, median; SUDHL10, 5 h
[5] = test system: SK-BR-3 cells; experiment: Antiproliferation assay (CellTiter-Glo, 72 h), SK-BR-3; type: cell-based; conditions: IC50, median; SK-BR-3, 72 h; read-out: Antiproli SK-BR-3 [M] median
Procedure: as §1, §2, §3, §4, §5

[6] = test system: KYSE-180 cells; experiment: Antiproliferation assay (CellTiter-Glo, 72 h), KYSE-180; type: cell-based; conditions: IC50, median; KYSE-180, 72 h; read-out: Antiproli KYSE-180 [M] median
Procedure: as §1, §2, §3, §4, §5

[7] = test system: SUDHL5 cells; experiment: Antiproliferation assay (CellTiter-Glo, 72 h), SUDHL5; type: cell-based; conditions: IC50, median; SUDHL5, 72 h; read-out: Antiproli SUDHL5 [M] (median)
Method in brief: as §6

[8] = test system: A2058 cells; experiment: Antiproliferation assay (CellTiter-Glo, 72 h), A2058; type: cell-based; conditions: IC50, median; A2058, 72 h; read-out: Antiproli A2058 [M] median
Procedure: as §1, §2, §3, §4, §5

[9] = test system: SNU-389 cells; experiment: Antiproliferation assay (CellTiter-Glo, 72 h), SNU-389; type: cell-based; conditions: IC50, median; SNU-389, 72 h; read-out: Antiproli SNU-389 [M] median
Method in brief: as §6

[10] = test system: SUDHL10 cells; experiment: Antiproliferation assay (CellTiter-Glo, 72 h), SUDHL10; type: cell-based; conditions: IC50, median; SUDHL10, 72 h; read-out: Antiproli SUDHL10 [M] (median)
Procedure: as §1, §2, §3, §4, §5

[11] = test system: HMC-1-8 cells; experiment: Antiproliferation assay (CellTiter-Glo, 72 h), HMC-1-8; type: cell-based; conditions: IC50, median; HMC-1-8, 72 h; read-out: Antiproli HMC-1-8 [M] median
Method in brief: as §6

[12] = test system: DMS-114 cells; experiment: Antiproliferation assay (CellTiter-Glo, 72 h), DMS-114; type: cell-based; conditions: IC50, median; DMS-114, 72 h; read-out: Antiproli DMS-114 [M] median
Method in brief: as §6

[13] = biological target: T1, MCL-1 (Homo sapiens (Human), UniProt Q07820, K194A/K197A/R201A); experiment: Protein-compound interaction assay (SPR assay); type: binding; conditions: equilibrium dissociation constant, geometric mean, SPR 25° C.
T1 sequence (Q07820 whole entry K194A/K197A/R201A, looked up): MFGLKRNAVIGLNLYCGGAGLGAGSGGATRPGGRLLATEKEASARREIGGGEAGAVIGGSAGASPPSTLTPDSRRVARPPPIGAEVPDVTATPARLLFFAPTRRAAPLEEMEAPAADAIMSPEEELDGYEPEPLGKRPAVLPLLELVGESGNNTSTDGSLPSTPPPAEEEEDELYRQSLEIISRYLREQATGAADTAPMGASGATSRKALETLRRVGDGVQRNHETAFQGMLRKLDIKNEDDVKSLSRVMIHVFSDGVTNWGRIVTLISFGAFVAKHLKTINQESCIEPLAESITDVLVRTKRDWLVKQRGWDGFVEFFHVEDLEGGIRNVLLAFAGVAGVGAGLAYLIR
From the text: Protein-Compound Interaction Assay (SPR Assay)
The ability of the compounds described in this invention to bind to MCL-1 may be determined using surface plasmon resonance (SPR). This allows for the quantification of binding in terms of the equilibrium dissociation constant (KD [M]), as well as association and dissociation rate constants (kon [1/M 1/s] and koff [1/s], respectively). The measurements may be performed using Biacore® T200 or Biacore® S200 instruments (GE Healthcare).
Subsequently, a solution of 1 M ethanolamine-HCl (GE Healthcare) was injected to block unreacted groups, resulting in approximately 400-2500 response units (RU) of immobilized protein. A reference surface was generated by treatment with NHS-EDC and ethanolamine-HCl.
The double-referenced sensorgrams were fit to a simple reversible Langmuir 1:1 reaction mechanism as implemented in the Biacore® T200 and S200 evaluation software (T200 evaluation software version 2.0 and S200 evaluation software version 1.0, GE Healthcare).

[14] = biological target: BCL-2 (Homo sapiens (Human), UniProt P10415); experiment: Protein-protein interaction assay BCL-2/Bad BH3 peptide (BCL-2 assay), TR-FRET; type: binding; conditions: IC50, median; BCL-2/Bad BH3 TR-FRET
Chain of BCL-2 (P10415 1-211): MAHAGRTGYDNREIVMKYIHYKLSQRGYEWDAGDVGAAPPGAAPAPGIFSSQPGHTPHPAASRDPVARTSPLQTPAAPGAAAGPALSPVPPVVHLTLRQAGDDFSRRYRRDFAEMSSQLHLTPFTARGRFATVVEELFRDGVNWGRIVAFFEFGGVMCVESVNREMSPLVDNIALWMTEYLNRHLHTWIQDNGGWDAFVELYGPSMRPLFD
Procedure: The dose-dependent inhibition by the compounds described in this invention of the interaction between BCL-2 and the BH3 domain of Bad (both human) was determined using a steady state binding competition assay with time-resolved fluorescence energy transfer (TR-FRET) readout.
(§7) For that, 100-fold concentrated DMSO solutions were prepared by serial dilutions (1:3.4) of a 2 mM stock solution in a clear, 384-well microtiter plate (Greiner Bio-One, Frickenhausen, Germany). From there, 50 nl were transferred in a dark test plate (Greiner Bio-One, Frickenhausen, Germany). […] This was followed by a 10-minute incubation step at 22° C. for pre-equilibration of the putative complex between His-BCL-2 and the compounds.
(§8) The mixture was incubated in the dark for one hour at 22° C. and then overnight at 4° C.
(§9) The resulting data (ratio) were normalized, taking 0% inhibition as the mean value of control measurements (usually 32 data points) where all reagents were included. In this case 50 nl DMSO were used instead of compounds. […] IC50 values were determined by regression analysis based on a 4 parameter equation (minimum, maximum, IC50, Hill; Y=Max+(Min−Max)/(1+(X/IC50)^Hill) using the Screener Software (Genedata).

[15] = test system: SUDHL10 cells; experiment: Induction of caspase-3/7 activity (Caspase-Glo 3/7), SUDHL10; type: cell-based; conditions: EC50, median; SUDHL10, 3 h treatment
Method in brief: (§10)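 Read-out: Caspase-Glo 3/7 signal, background-corrected against medium-only wells, taken after cells had been incubated with compounds for 3 h at 37 °C.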

[16] = biological target: T1, MCL-1; experiment: Protein-protein interaction assay MCL-1/Noxa BH3 peptide (MCL-1 assay), TR-FRET; type: binding; conditions: IC50, median; MCL-1/Noxa BH3 TR-FRET
Procedure: The dose-dependent inhibition by the compounds described in this invention of the interaction between MCL-1 and the BH3 domain of Noxa (both human) was determined using a steady state binding competition assay with time-resolved fluorescence energy transfer (TR-FRET) readout. […] The MBP-MCL-1 was purchased from Beryllium (Bedford, Mass., USA). The expression and purification of this protein construct has been described elsewhere (DOI:10.1371/journal.pone.0125010). The Noxa BH3-derived peptide can be obtained from e.g. Biosyntan (Berlin, Germany), 50812.1.
as §7, with “MBP-MCL-1” for “His-BCL-2”
as §8, §9

[17] = test system: SUDHL5 cells
[18] = biological target: BCL-XL (Homo sapiens (Human), UniProt Q07817); experiment: Protein-protein interaction assay BCL-XL/Bad BH3 peptide (BCL-XL assay), TR-FRET; type: binding; conditions: IC50, median
Chain of BCL-XL (Q07817 1-212): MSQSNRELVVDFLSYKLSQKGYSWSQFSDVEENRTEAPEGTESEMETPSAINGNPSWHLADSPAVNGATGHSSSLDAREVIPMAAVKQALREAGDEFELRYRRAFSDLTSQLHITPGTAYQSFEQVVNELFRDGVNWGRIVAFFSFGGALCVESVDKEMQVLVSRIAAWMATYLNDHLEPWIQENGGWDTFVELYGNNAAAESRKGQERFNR
Procedure: The dose-dependent inhibition by the compounds described in this invention of the interaction between BCL-XL and the BH3 domain of Bad (both human) was determined using a steady state binding competition assay with time-resolved fluorescence energy transfer (TR-FRET) readout.
as §7, with “His-BCL-XL” for “His-BCL-2”
as §8, §9

[19] = test system: SUDHL10 cells
[20] = test system: SUDHL5 cells; experiment: Induction of caspase-3/7 activity (Caspase-Glo 3/7), SUDHL5; type: cell-based; conditions: EC50, median; SUDHL5, 3 h treatment
Method in brief: as §10

Row | Compound | IC50 [1] [M] | IC50 [2] [M] | IC50 [3] [M] | IC50 [4] [M] | IC50 [5] [M] | IC50 [6] [M] | IC50 [7] [M] | IC50 [8] [M] | IC50 [9] [M] | IC50 [10] [M] | IC50 [11] [M] | IC50 [12] [M] | Kd [13] [nM] | IC50 [14] | EC50 [15] [nM] | IC50 [16] [nM] | IC50 [17] [nM] | IC50 [18] [nM] | IC50 [19] [nM] | EC50 [20] [nM]
1 | Cc1c2c(nn1C)CN(C)CCCCn1c(C(=O)O)c(CCCOc3cccc4ccccc34)c3ccc(Cl)c-2c31 (single isomer, unassigned; enantiomer 1) [Example 12, (+)-4-chloro-2,3,14-trimethyl-7-[3-(naphthalen-1-yloxy)propyl]-10,11,12,13,14,15-hexahydro-2H-pyrazolo[3′,4′:8,9][1,6]diazacycloundecino[10,11,1-hi]indole-8-carboxylic acid-N-ethylethanamine salt (Enantiomer 1)] | 7.1e-06 | 3.3e-07 | 4.41e-07 | 1.4e-07 | 6.67e-07 | 3.79e-06 | 1.7e-07 | 4.83e-06 | 7.22e-07 | 1.4e-07 | 1.6e-06 | 1.32e-06 |  |  |  |  |  |  |  | 
2 | Cc1c2c(nn1C)CN(C)CCCCn1c(C(=O)O)c(CCCOc3cccc4cc(F)ccc34)c3ccc(Cl)c-2c31 (single isomer, unassigned; enantiomer 1) [Example 31, (+)-4-chloro-7-{3-[(6-fluoronaphthalen-1-yl)oxy]propyl}-2,3,14-trimethyl-10,11,12,13,14,15-hexahydro-2H-pyrazolo[3′,4′:8,9][1,6]diazacycloundecino[10,11,1-hi]indole-8-carboxylic acid-N-ethylethanamine salt (Enantiomer 1)] |  | 1.7e-07 | 2.75e-07 |  |  |  |  |  |  |  | 1.9e-06 |  | 0.43 |  |  |  |  |  |  | 
3 | CCc1c2c(nn1C)COC/C=C\Cn1c(C(=O)O)c(CCCOc3cccc4ccccc34)c3ccc(Cl)c-2c31 (racemic) [Example 18, (rac)-(11Z)-4-chloro-3-ethyl-2-methyl-7-[3-(naphthalen-1-yloxy)propyl]-2,10,13,15-tetrahydropyrazolo[4′,3′:9,10][1,6]oxazacycloundecino[8,7,6-hi]indole-8-carboxylic acid] |  |  | 4.71e-06 |  |  |  | 1.4e-06 |  |  |  |  |  |  | > 20000 nM and 19000 nM and 20000 nM | 1300 | 1.3 | 1200 | > 20000 | 1300 | 1100
